This is an account of results in ChEMBL document CHEMBL3045519, “Selective Herbicidal Activity of 3, 5-Dichloropyridyloxy-phenoxypropionamidoxyacetic Acid Derivatives between Wheat and Wild Oat” (J Pestic Sci, 1996).

Activity calls are given as the source filed them. No cut-off for these calls is given here.

Data set [1] concerns Avena fatua. Briefly: Post-emergence herbicidal activity against Avena fatua under greenhouse conditions at 1.3 g/a at 1.5-leaf stage measured after 3 weeks by pot test. The class given is functional, organism-based.
Data set [2] relates to Triticum aestivum. Put plainly: Phytotoxicity against Triticum aestivum (wheat) under greenhouse conditions at 0.3 g/a at 1.5-leaf stage measured after 3 weeks by pot test. The class given is organism-based. As to conditions: in vivo, 504 h.
Data set [3] concerns Triticum aestivum. Briefly: Phytotoxicity against Triticum aestivum (wheat) under greenhouse conditions at 0.6 g/a at 1.5-leaf stage measured after 3 weeks by pot test. In kind it is organism-based. As to conditions: in vivo, 504 h.
Data set [4] deals with Triticum aestivum. Briefly: Phytotoxicity against Triticum aestivum (wheat) under greenhouse conditions at 2.5 g/a at 1.5-leaf stage measured after 3 weeks by pot test. In kind it is organism-based. As to conditions: in vivo, 504 h.
In data set [5] the test system is Triticum aestivum. Put plainly: Phytotoxicity against Triticum aestivum (wheat) under greenhouse conditions at 1.3 g/a at 1.5-leaf stage measured after 3 weeks by pot test. The class given is organism-based. As to conditions: in vivo, 504 h.
Data set [6] deals with Avena fatua. Put plainly: Post-emergence herbicidal activity against Avena fatua under greenhouse conditions at 2.5 g/a at 1.5-leaf stage measured after 3 weeks by pot test. The class given is functional, organism-based.
The subject of data set [7] is Avena fatua. Put plainly: Post-emergence herbicidal activity against Avena fatua under greenhouse conditions at 0.3 g/a at 1.5-leaf stage measured after 3 weeks by pot test. In kind it is functional, organism-based.
Data set [8] relates to Avena fatua. Briefly: Post-emergence herbicidal activity against Avena fatua under greenhouse conditions at 0.6 g/a at 1.5-leaf stage measured after 3 weeks by pot test. The class given is functional, organism-based.

As to `CNC(=O)CNC(=O)C(C)Oc1ccc(Oc2ncc(Cl)cc2Cl)cc1` (stereo unspecified), the result in the data set with Avena fatua [1], in the data set with Avena fatua [6], with Avena fatua [7] and with Avena fatua [8] was Active. The Activity entry in the data set on Triticum aestivum [2], in the data set on Triticum aestivum [3], in the data set on Triticum aestivum [4] and in the data set with Triticum aestivum [5] was “Non-toxic” in each case.
Consider `CC(Oc1ccc(Oc2ncc(Cl)cc2Cl)cc1)C(=O)NOCC(=O)O` (stereo unspecified), for which the result in the data set with Avena fatua [1] was inactive. Also, the Activity entry in the data set on Triticum aestivum [2], with Triticum aestivum [3], in the data set with Triticum aestivum [4] and in the data set on Triticum aestivum [5] was “Non-toxic” in each case. Further, the result in the data set on Avena fatua [6], in the data set with Avena fatua [7] and with Avena fatua [8] was Active.
As for `CC(Oc1ccc(Oc2ncc(Cl)cc2Cl)cc1)C(=O)N(C)OCC(=O)O` (stereo unspecified), the outcome in the data set on Avena fatua [1] and in the data set with Avena fatua [6] was Active. Besides, the Activity result in the data set with Triticum aestivum [2], in the data set on Triticum aestivum [3], in the data set with Triticum aestivum [4] and with Triticum aestivum [5] was “Non-toxic” throughout. In addition, the outcome in the data set on Avena fatua [7] and with Avena fatua [8] was inactive.
In the case of `CC(Oc1ccc(Oc2ncc(C(F)(F)F)cc2Cl)cc1)C(=O)O` (stereo unspecified) [HALOXYFOP], the outcome with Avena fatua [1], in the data set on Avena fatua [6], with Avena fatua [7] and in the data set on Avena fatua [8] was Active. Also, the Activity entry in the data set on Triticum aestivum [2], with Triticum aestivum [3], in the data set with Triticum aestivum [4] and with Triticum aestivum [5] was “Toxic” in each case.
For `CC(Oc1ccc(Oc2ncc(Cl)cc2Cl)cc1)C(=O)NO` (stereo unspecified), the outcome in the data set on Avena fatua [1], in the data set on Avena fatua [6] and in the data set with Avena fatua [8] was Active. For the same compound, the Activity result with Triticum aestivum [2], with Triticum aestivum [3], in the data set with Triticum aestivum [4] and with Triticum aestivum [5] was “Non-toxic” in each case. Also, the outcome with Avena fatua [7] was inactive.
On to `CC(Oc1ccc(Oc2ncc(Cl)cc2Cl)cc1)C(=O)NCC(N)=O` (stereo unspecified), for which the outcome in the data set with Avena fatua [1], in the data set on Avena fatua [6], in the data set on Avena fatua [7] and in the data set on Avena fatua [8] was Active. Also, the Activity result with Triticum aestivum [2] is listed as “Non-toxic”; with Triticum aestivum [3], “Non-toxic”; in the data set with Triticum aestivum [4], “Toxic”; in the data set on Triticum aestivum [5] it was “Non-toxic”.
Take `CONC(=O)C(C)Oc1ccc(Oc2ncc(Cl)cc2Cl)cc1` (stereo unspecified): the result with Avena fatua [1], in the data set with Avena fatua [6], with Avena fatua [7] and in the data set on Avena fatua [8] was Active. The Activity result with Triticum aestivum [2] is “Non-toxic”; with Triticum aestivum [3], “Toxic”; with Triticum aestivum [4], “Toxic”; in the data set on Triticum aestivum [5], “Toxic”.
For `CC(Oc1ccc(Oc2ncc(C(F)(F)F)cc2Cl)cc1)C(=O)NOCC(=O)O` (stereo unspecified), the outcome in the data set with Avena fatua [1], with Avena fatua [6], in the data set on Avena fatua [7] and in the data set on Avena fatua [8] was Active. Besides, the Activity result in the data set with Triticum aestivum [2], in the data set on Triticum aestivum [3], with Triticum aestivum [4] and in the data set with Triticum aestivum [5] was “Toxic” in each case.
Turning to `O=C(O)CONC(=O)COc1ccc(Oc2ncc(Cl)cc2Cl)cc1`, the result in the data set with Avena fatua [1], in the data set on Avena fatua [6], with Avena fatua [7] and with Avena fatua [8] was inactive. In addition, the Activity entry in the data set on Triticum aestivum [2], with Triticum aestivum [3], in the data set on Triticum aestivum [4] and with Triticum aestivum [5] was “Non-toxic” throughout.
With `CC(Oc1ccc(Oc2ncc(Cl)cc2Cl)cc1)C(=O)NN` (stereo unspecified), the outcome with Avena fatua [1], in the data set on Avena fatua [6], in the data set on Avena fatua [7] and with Avena fatua [8] was inactive. Also, the Activity result in the data set on Triticum aestivum [2], in the data set with Triticum aestivum [3], in the data set with Triticum aestivum [4] and in the data set with Triticum aestivum [5] was “Non-toxic” each time.
With `COC(=O)C(C)Oc1ccc(Oc2ncc(Cl)cc2Cl)cc1` (stereo unspecified), the result in the data set with Avena fatua [1], in the data set on Avena fatua [6], in the data set with Avena fatua [7] and in the data set with Avena fatua [8] was Active. The Activity entry in the data set with Triticum aestivum [2], in the data set with Triticum aestivum [3], with Triticum aestivum [4] and in the data set on Triticum aestivum [5] was “Toxic” in each case.
`CCOC(=O)C(C)Oc1ccc(Oc2ncc(Cl)cc2Cl)cc1` (stereo unspecified): the outcome in the data set with Avena fatua [1], in the data set with Avena fatua [6], in the data set on Avena fatua [7] and with Avena fatua [8] was Active. In addition, the Activity entry in the data set with Triticum aestivum [2], with Triticum aestivum [3], with Triticum aestivum [4] and in the data set on Triticum aestivum [5] was “Toxic” throughout.
In the case of `CCCCOC(=O)CNC(=O)C(C)Oc1ccc(Oc2ncc(Cl)cc2Cl)cc1` (stereo unspecified), the outcome in the data set with Avena fatua [1], in the data set on Avena fatua [6], in the data set on Avena fatua [7] and with Avena fatua [8] was Active. Further, the Activity entry with Triticum aestivum [2], in the data set with Triticum aestivum [3], in the data set on Triticum aestivum [4] and in the data set with Triticum aestivum [5] was “Non-toxic” in each case.
Take `CC(Oc1ccc(Oc2ccc(C(F)(F)F)cn2)cc1)C(=O)NOCC(=O)O` (stereo unspecified): the result with Avena fatua [1], in the data set with Avena fatua [6] and in the data set on Avena fatua [8] was Active. For the same compound, the Activity result with Triticum aestivum [2], in the data set with Triticum aestivum [3], with Triticum aestivum [4] and in the data set on Triticum aestivum [5] was “Toxic” each time. Moreover, in the data set on Avena fatua [7], the outcome was inactive.
Regarding `CC(Oc1ccc(Oc2cnc3cc(Cl)ccc3n2)cc1)C(=O)NOCC(=O)O` (stereo unspecified), the outcome with Avena fatua [1], with Avena fatua [6], in the data set with Avena fatua [7] and in the data set on Avena fatua [8] was Active. The Activity result in the data set with Triticum aestivum [2], with Triticum aestivum [3], with Triticum aestivum [4] and in the data set on Triticum aestivum [5] was “Toxic” each time.
For the compound `CCCOC(=O)CNC(=O)C(C)Oc1ccc(Oc2ncc(Cl)cc2Cl)cc1` (stereo unspecified), the outcome in the data set with Avena fatua [1], with Avena fatua [6], with Avena fatua [7] and in the data set with Avena fatua [8] was Active. The Activity entry in the data set with Triticum aestivum [2], in the data set on Triticum aestivum [3], in the data set with Triticum aestivum [4] and in the data set on Triticum aestivum [5] was “Non-toxic” in each case.
Consider `CCOC(=O)CNC(=O)C(C)Oc1ccc(Oc2ncc(Cl)cc2Cl)cc1` (stereo unspecified), for which the result in the data set with Avena fatua [1], in the data set on Avena fatua [6], with Avena fatua [7] and in the data set with Avena fatua [8] was Active. In addition, the Activity entry in the data set on Triticum aestivum [2] is on record as “Non-toxic”; with Triticum aestivum [3], “Non-toxic”; in the data set with Triticum aestivum [4], “Toxic”; in the data set on Triticum aestivum [5], “Non-toxic”.
For the compound `CC(Oc1ccc(Oc2cnc3cc(Cl)ccc3n2)cc1)C(=O)O` (stereo unspecified) [QUIZALOFOP], the result with Avena fatua [1], in the data set with Avena fatua [6], in the data set on Avena fatua [7] and in the data set on Avena fatua [8] was Active. Also, the Activity result in the data set on Triticum aestivum [2], in the data set with Triticum aestivum [3], in the data set with Triticum aestivum [4] and in the data set with Triticum aestivum [5] was “Toxic” throughout.
Take `CNC(=O)C(C)Oc1ccc(Oc2ncc(Cl)cc2Cl)cc1` (stereo unspecified): the outcome with Avena fatua [1], in the data set with Avena fatua [6], in the data set with Avena fatua [7] and in the data set on Avena fatua [8] was inactive. Also, the Activity result in the data set on Triticum aestivum [2], with Triticum aestivum [3], with Triticum aestivum [4] and in the data set on Triticum aestivum [5] was “Non-toxic” each time.
On to `CCCCNC(=O)CNC(=O)C(C)Oc1ccc(Oc2ncc(Cl)cc2Cl)cc1` (stereo unspecified), for which the outcome with Avena fatua [1], with Avena fatua [6], in the data set on Avena fatua [7] and in the data set on Avena fatua [8] was Active. The Activity entry is “Non-toxic” in the data set on Triticum aestivum [2], “Non-toxic” in the data set with Triticum aestivum [3], “Toxic” with Triticum aestivum [4] and “Non-toxic” with Triticum aestivum [5].
`CC(Oc1ccc(Oc2ncc(Cl)cc2Cl)cc1)C(=O)O` (stereo unspecified) [PYRIPHENOP]: the outcome with Avena fatua [1], in the data set with Avena fatua [6], in the data set on Avena fatua [7] and with Avena fatua [8] was Active. The Activity entry is “Non-toxic” in the data set on Triticum aestivum [2], “Toxic” in the data set on Triticum aestivum [3], “Toxic” in the data set on Triticum aestivum [4] and “Toxic” in the data set with Triticum aestivum [5].
On to `CC(Oc1ccc(Oc2ncc(Cl)cc2Cl)cc1)C(=O)NCCC(=O)O` (stereo unspecified), for which the result with Avena fatua [1] and in the data set with Avena fatua [6] was Active. Besides, the Activity entry in the data set with Triticum aestivum [2], in the data set on Triticum aestivum [3], with Triticum aestivum [4] and in the data set with Triticum aestivum [5] was “Non-toxic” each time. Also, the outcome in the data set with Avena fatua [7] and in the data set with Avena fatua [8] was inactive.
